Data taken from PMC12140054, “Small glycomimetic antagonists of the cytomegalovirus glycoprotein UL141 prevent binding to TRAIL death receptor” (The Journal of Biological Chemistry, 2025).

Assays:
[1] = system: human foreskin fibroblasts HFF-BJ (ATCC CRL-2522 cells); assay: MTT cytotoxicity / cell viability assay; type: cell-based; conditions: 0.1 to 50 μM, 72 h
Excerpt: Cell viability as visualized by fold change of formazan-positive cells normalized to the untreated control and DMSO. Viability reduced below 40% represents the cytotoxic zone, below the dotted line in each plot. The number of biological replicates is indicated.
Human foreskin fibroblasts (HFF), a type of primary fibroblast derived from neonatal foreskin tissue, were chosen for this bioassay due to their distinct advantages in studies involving HCMV. For instance, the HHF cells provide a relevant and effective platform due to their unique susceptibility to HCMV infection, ability to mimic human immune responses, and relevance to clinical scenarios. […] HFF cells were incubated with each compound at concentrations ranging from 0.1 to 50 μM and any possible cytotoxic effect was monitored for 72 h. Tested compounds were dissolved in dimethyl sulfoxide (DMSO). […] The cytotoxic effect (CTE) is represented here as the concentration that causes a reduction of more than 40% in the number of viable cells.
Cells were seeded in a 96-well plate at a density of 1 × 10^4 cells per well for the measurement of cytotoxicity of the compounds (without UVA irradiation). […] Cells after treatment were incubated for […]. Untreated cells were considered negative control, and DMSO-treated cells (at appropriate concentration) were considered vehicle control. The classical MTT assay (3-(4,5-dimethyl thiazolyl-2)-2,5-diphenyltetrazolium bromide) ([68]) was used to measure cellular metabolic activity as an indicator of cell viability, proliferation, and cytotoxicity. Briefly, 0.5 mg/ml MTT solution was dispensed in each well of the 96-well plate and incubated for 4 h. Afterward, the MTT solution was removed and 200 μl of 100% DMSO was added to each well and the plate was placed on a microplate shaker for 5 min to dissolve the formazan granules. The absorbance was measured at 550 nm using a spectrophotometer. DMSO and MTT were purchased from Thermo Fisher Scientific. The darker the solution, the greater the number of viable, metabolically active cells. All experimental compounds were measured using at least 2 to 3 replicates for each and the averaged values from three independent experiments (n = 3) are presented. Cell viability was visualized by fold change of formazan-positive cells normalized to the untreated control and DMSO. Viability reduced below 40% represents the cytotoxic zone. All evaluations were performed using GraphPad Prism 9.5.0 (GraphPad Software, LLC), if other software was not explicitly mentioned.

UL141 W235A mutant = molecular target: T1, UL141 W235A mutant (Human cytomegalovirus, UniProt Q6RJQ3, W235A); assay: SPR binding to UL141 alanine mutant W235A; conditions: W235A (site C), 0 to 25 μM
T1 construct: extracellular domain of HCMV UL141 (residues 30–300, Gene ID: 3077418); made in house; host or cells: Sf9 (baculovirus)
T1 sequence (Q6RJQ3 30-300 W235A): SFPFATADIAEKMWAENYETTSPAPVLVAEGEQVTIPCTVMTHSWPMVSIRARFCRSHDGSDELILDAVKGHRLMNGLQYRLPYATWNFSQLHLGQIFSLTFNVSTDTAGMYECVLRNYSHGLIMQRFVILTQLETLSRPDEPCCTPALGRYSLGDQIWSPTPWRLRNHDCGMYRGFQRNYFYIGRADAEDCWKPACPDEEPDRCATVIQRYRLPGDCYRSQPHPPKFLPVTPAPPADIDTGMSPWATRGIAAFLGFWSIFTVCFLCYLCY
Excerpt: Collectively, the findings from molecular modeling, ELISA, and SPR prompted a more detailed investigation into the binding mechanisms, leading us to explore the possibility of distinct binding sites for UL141 in its interaction with glycomimetic compound 18. To further clarify this, we conducted mutational analysis on the surface residues of UL141 to identify specific binding sites involved in this interaction. The following residues were selected for alanine-scanning mutagenesis, followed by SPR analysis to assess their contribution to the binding affinity of UL141 for 18: Asp91, Glu92, Arg82, Arg80, and Asp37 (site A); Tyr148 and Arg146 (site B); and Arg85, Leu163, Glu164, Pro231, Trp235, and Asp232 (site C) (Fig. 9A). The UL141 mutants were generated through single alanine substitutions and recombinantly produced in the BV-Sf9 system following the same protocol as the WT UL141. […] The binding affinities of the remaining mutants were assessed using SPR, as illustrated in Figure 9. […] Binding interactions were monitored over a 300-s period. […]
Figure 9 Mutational analysis of UL141 binding sites for antagonist 18. […] An alternative representation of the same SPR data, showing all measured concentration points, is provided in panel (C), with the structure of compound 18 included for reference. […]

CCC1C(O)C(O)CN1Cc1ccc(I)cc1 (centres unmarked) [Compound 18]
cytotoxicity (in words) [1]: no cytotoxicity was detected
binding to UL141 mutant (UL141 W235A mutant): prevented binding
